Blank lines part the entries; values can stand above or below the compound they belong to. Active and inactive are the calls of the source. No cut-off for these calls is given here.
Key:
[1] = molecular target: T1, Gamma-aminobutyric acid receptor subunit rho-1 (Homo sapiens, UniProt P24046); test: Antagonist activity at human GABAC rho1 receptor expressed in Xenopus laevis oocytes assessed as inhibition of GABA-induced current at 600 uM by two electrode voltage clamp assay relative to control; assay type: cell-based; conditions: Oocyte
[2] = Agonist activity at GABAC receptor (unknown origin) expressed in Xenopus laevis oocytes; assay type: cell-based; conditions: Homo sapiens, Oocyte
[3] = molecular target: GABA-A receptor; alpha-1/beta-2/gamma-2 (Homo sapiens) (UniProt P14867+P47870+P18507); test: Antagonist activity at human GABAA alpha1beta2gamma2L receptor expressed in Xenopus laevis oocytes assessed as inhibition of GABA-induced current at 300 uM by two electrode voltage clamp assay relative to control; assay type: cell-based; conditions: Oocyte
[4] = molecular target: T1, Gamma-aminobutyric acid receptor subunit rho-1; test: Antagonist activity at human GABAC rho1 receptor expressed in Xenopus laevis oocytes assessed as inhibition of GABA-induced current preincubated for 5 mins by two electrode voltage clamp assay; assay type: cell-based, Oocyte
[5] = molecular target: T1, Gamma-aminobutyric acid receptor subunit rho-1; test: Antagonist activity at human GABAC rho1 receptor expressed in Xenopus laevis oocytes assessed as inhibition of GABA-induced current by two electrode voltage clamp assay; assay type: cell-based, Oocyte
[6] = molecular target: T1, Gamma-aminobutyric acid receptor subunit rho-1; test: Antagonist activity at human GABAC rho1 receptor expressed in Xenopus laevis oocytes assessed as inhibition of GABA-induced current at 300 uM by two electrode voltage clamp assay relative to control; assay type: cell-based; conditions: Oocyte
[7] = molecular target: T1, Gamma-aminobutyric acid receptor subunit rho-1; test: Agonist activity at GABAC rho1 receptor (unknown origin)
Homo sapiens = species on record: Homo sapiens; test: Selectivity for human GABAC rho1 receptor over human GABAA alpha1beta2gamma2L receptor
[8] = molecular target: GABA-A receptor; agonist GABA site; test: Agonist activity at GABAA receptor (unknown origin); assay type: protein-complex assay, Homo sapiens
[9] = molecular target: T1, Gamma-aminobutyric acid receptor subunit rho-1; test: Partial agonist activity at GABAC rho1 receptor (unknown origin)

T1 sequence (P24046 whole entry): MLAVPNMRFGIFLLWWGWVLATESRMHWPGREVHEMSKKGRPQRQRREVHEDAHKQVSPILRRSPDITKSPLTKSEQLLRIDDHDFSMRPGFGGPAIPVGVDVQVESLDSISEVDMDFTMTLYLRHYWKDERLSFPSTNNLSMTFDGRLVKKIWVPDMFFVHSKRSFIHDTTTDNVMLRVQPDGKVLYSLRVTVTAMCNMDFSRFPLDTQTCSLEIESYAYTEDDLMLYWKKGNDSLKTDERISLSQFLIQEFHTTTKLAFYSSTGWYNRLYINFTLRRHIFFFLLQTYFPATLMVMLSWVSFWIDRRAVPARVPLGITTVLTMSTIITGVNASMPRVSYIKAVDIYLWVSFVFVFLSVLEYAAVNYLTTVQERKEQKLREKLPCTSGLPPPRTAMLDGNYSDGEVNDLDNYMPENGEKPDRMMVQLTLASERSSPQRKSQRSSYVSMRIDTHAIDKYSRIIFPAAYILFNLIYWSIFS

inhibition [1]: 31%
SMILES: CCCCP(=O)(O)C1=CC[C@H](NC(=O)CCCCNC(=O)c2ccccc2NC)C1

inhibition [1]: 23%
SMILES: CCCCP(=O)(O)C1=CC[C@H](NC(=O)CCCNC(=O)c2ccccc2NC)C1

EC50 [2]: 20 µM
SMILES: O=C(CCCC[C@@H]1SC[C@@H]2NC(=O)N[C@@H]21)NCCCCCC(=O)NCc1cc(O)no1

SMILES: CCCCP(=O)(O)C1=CC[C@H](NC(=O)CCCCCNc2ccc([N+](=O)[O-])c3nonc23)C1
inhibition [3]: inactive | IC50 [4]: 193 µM | IC50 [5]: 281 µM

SMILES: CCCCP(=O)(O)C1=CC[C@@H](N)C1
inhibition [3]: inactive | inhibition [6]: 92%

inhibition [3]: inactive | inhibition [1]: 62%
SMILES: CCCCP(=O)(O)C1=CC[C@H](NC(=O)CCCCCNC(=O)c2ccccc2NC)C1

SMILES: CCCCP(=O)(O)C1=CC[C@H](N)C1
inhibition [3]: inactive | IC50 [5]: 9.76 µM | inhibition [6]: 97%

inhibition [1]: 24%
SMILES: CCCCP(=O)(O)C1=CC[C@H](NC(=O)CCCCCCCNC(=O)c2ccccc2NC)C1

EC50 [7]: 22 µM
SMILES: Cc1nc[nH]c1CC(=O)O

inhibition [6]: inactive
SMILES: CCCCP(=O)(O)C1=CC[C@H](NC(=O)CCCC[C@@H]2SC[C@@H]3NC(=O)N[C@@H]32)C1

inhibition [1]: 55%
SMILES: CCCCP(=O)(O)C1=CC[C@H](NC(=O)CCCCCCNC(=O)c2ccccc2NC)C1

SMILES: CCCCP(=O)(O)C1=CC[C@H](NC(=O)CCCCCNC(=O)CCC2=C3C(C)=CC(C)=[N+]3[B-](F)(F)n3c(C)cc(C)c32)C1
inhibition [3]: inactive | IC50 [4]: 58.6 µM | IC50 [5]: 103 µM | Selectivity ratio (Homo sapiens): > 100

EC50 [7]: 39.7 µM
SMILES: NC[C@@H]1C[C@@H]1C(=O)O

inhibition [1]: 8%
SMILES: CCCCP(=O)(O)C1=CC[C@H](NC(=O)CCCCCCCCCCNC(=O)c2ccccc2NC)C1

inhibition [3]: inactive | inhibition [1]: 56%
SMILES: CCCCP(=O)(O)C1=CC[C@@H](NC(=O)CCCCCNC(=O)c2ccccc2NC)C1

SMILES: NCc1cc(=O)[nH]o1 [MUSCIMOL]
EC50 [8]: 27 µM | EC50 [2]: 2 µM | EC50 [9]: 2.3 µM

SMILES: CCCCP(=O)(O)C1=CC[C@H](NC(=O)CCCCCNC(=O)CCCC[C@@H]2SC[C@@H]3NC(=O)N[C@@H]32)C1
inhibition [3]: 9% | IC50 [4]: 76.5 µM | IC50 [5]: 148 µM

inhibition [1]: 8%
SMILES: CCCCP(=O)(O)C1=CC[C@H](NC(=O)CNC(=O)c2ccccc2NC)C1

— ChEMBL document CHEMBL2331375, “Design, Synthesis, and Pharmacological Evaluation of Fluorescent and Biotinylated Antagonists of ρ1 GABAC Receptors” (ACS Med Chem Lett, 2013)
